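Following 48 hours of exposure in 96-well plates, responses at five concentrations were used to interpolate endpoints linearly. Abbreviation: GI50, concentration required for 50% inhibition of growth.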 The source made the active and inactive calls. Rule as the data show it: active = GI50 up to about 1.1 µM and inactive = higher.
Columns and labels:
Test in all cases: NCI tumour cell line growth inhibition, 48 h
OVCAR-5 = tested on: OVCAR-5
HL-60 = tested on: HL-60
SF-539 = tested on: SF-539
T47D = tested on: T47D
M14 = tested on: M14
HT-29 = tested on: HT-29
OVCAR-8 = tested on: OVCAR-8
HOP-62 = tested on: HOP-62
CAKI-1 = tested on: CAKI-1
MDA-MB-231 = tested on: MDA-MB-231
ACHN = tested on: ACHN
NCI/ADR-RES = tested on: NCI/ADR-RES
MDA-MB-435 = tested on: MDA-MB-435
EKVX = tested on: EKVX
Malme-3M = tested on: Malme-3M
K562 = tested on: K562
KM12 = tested on: KM12
CCRF-CEM = tested on: CCRF-CEM
Hs-578T = tested on: Hs-578T

Compound	GI50 (OVCAR-5)	GI50 (HL-60)	GI50 (SF-539)	GI50 (T47D)	GI50 (M14)	GI50 (HT-29)	GI50 (OVCAR-8)	GI50 (HOP-62)	GI50 (CAKI-1)	GI50 (MDA-MB-231)	GI50 (ACHN)	GI50 (NCI/ADR-RES)	GI50 (MDA-MB-435)	GI50 (EKVX)	GI50 (Malme-3M)	GI50 (K562)	GI50 (KM12)	GI50 (CCRF-CEM)	GI50 (Hs-578T)
S=C(NN=C1NCCCCN1)Nc1ccccc1	> 100 µM (inactive)	14.6 µM (inactive)	> 100 µM (inactive)	> 100 µM (inactive)	31.7 µM (inactive)	23 µM (inactive)	36 µM (inactive)	68.9 µM (inactive)	> 100 µM (inactive)	> 100 µM (inactive)	28.9 µM (inactive)	> 100 µM (inactive)	39.7 µM (inactive)	66.4 µM (inactive)	> 100 µM (inactive)	31.6 µM (inactive)	37.2 µM (inactive)	19.8 µM (inactive)	
CC(=O)OCC(=O)OC[C@H](OCc1ccccc1)[C@@H]1[C@H](OC(C)=O)C(=O)N1Cc1ccccc1	> 100 µM (inactive)				> 100 µM (inactive)	> 100 µM (inactive)	> 100 µM (inactive)	> 100 µM (inactive)		> 100 µM (inactive)	> 100 µM (inactive)	> 100 µM (inactive)	> 100 µM (inactive)	> 100 µM (inactive)	> 100 µM (inactive)	> 100 µM (inactive)	> 100 µM (inactive)	> 100 µM (inactive)	> 100 µM (inactive)
CC[n+]1cnc(N)c2c(-c3ccc(Cl)cc3)cn(-c3ccc(C)cc3)c21	15.8 µM (inactive)	24.8 µM (inactive)	14.6 µM (inactive)	12 µM (inactive)	1.94 µM (inactive)	4.36 µM (inactive)	18.5 µM (inactive)	16.8 µM (inactive)	16 µM (inactive)	17 µM (inactive)	12.9 µM (inactive)	12.9 µM (inactive)	11.5 µM (inactive)	14.8 µM (inactive)	12.3 µM (inactive)	5.33 µM (inactive)	15.8 µM (inactive)	6.89 µM (inactive)	
Nc1cccc(S(=O)(=O)Nc2nnc(S(N)(=O)=O)s2)c1	> 100 µM (inactive)	> 100 µM (inactive)	> 100 µM (inactive)	> 100 µM (inactive)	> 100 µM (inactive)	> 100 µM (inactive)	> 100 µM (inactive)	> 100 µM (inactive)	> 100 µM (inactive)	> 100 µM (inactive)	> 100 µM (inactive)	> 100 µM (inactive)	> 100 µM (inactive)	> 100 µM (inactive)	> 100 µM (inactive)	> 100 µM (inactive)	> 100 µM (inactive)		
COc1ccc(NC(=S)Nc2c(C)n(C)n(-c3ccccc3)c2=O)cc1	> 100 µM (inactive)	> 100 µM (inactive)	> 100 µM (inactive)		> 100 µM (inactive)	> 100 µM (inactive)	> 100 µM (inactive)	> 100 µM (inactive)	> 100 µM (inactive)	> 100 µM (inactive)	> 100 µM (inactive)	> 100 µM (inactive)	> 100 µM (inactive)	> 100 µM (inactive)	> 100 µM (inactive)	> 100 µM (inactive)	> 100 µM (inactive)	> 100 µM (inactive)	> 100 µM (inactive)
O=C1OC(c2ccc([N+](=O)[O-])cc2)=N/C1=C\c1ccc(Cl)cc1	85.1 µM (inactive)	> 100 µM (inactive)	> 100 µM (inactive)	> 100 µM (inactive)	> 100 µM (inactive)	> 100 µM (inactive)	> 100 µM (inactive)	> 100 µM (inactive)	> 100 µM (inactive)	> 100 µM (inactive)	> 100 µM (inactive)		> 100 µM (inactive)	> 100 µM (inactive)	> 100 µM (inactive)	> 100 µM (inactive)	> 100 µM (inactive)	> 100 µM (inactive)	> 100 µM (inactive)
C[n+]1ccccc1/C1=c2\cc/c([nH]2)=C(\c2cccc[n+]2C)C2=N/C(=C(/c3cccc[n+]3C)C3C=CC(N3)/C(c3cccc[n+]3C)=C3/C=CC1=N3)C=C2	> 100 µM (inactive)	> 100 µM (inactive)	> 100 µM (inactive)	> 100 µM (inactive)	> 100 µM (inactive)	39.3 µM (inactive)	> 100 µM (inactive)	> 100 µM (inactive)	> 100 µM (inactive)		> 100 µM (inactive)	> 100 µM (inactive)	57 µM (inactive)	> 100 µM (inactive)	> 100 µM (inactive)	26.7 µM (inactive)	62.4 µM (inactive)	3.26 µM (inactive)	> 100 µM (inactive)
COc1cc([C@@H]2c3cc4c(cc3C[C@H]3COC(=O)[C@@H]32)OCO4)cc(OC)c1OC [DESOXYPODOPHYLLOTOXIN]	> 10.8 µM (inactive)	0.00713 µM (active)		0.003 µM (active)	0.004 µM (active)		0.00721 µM (active)	0.0127 µM (active)	0.00711 µM (active)	< 0.01 µM (active)	0.00393 µM (active)		0.00261 µM (active)	0.005 µM (active)	0.0149 µM (active)	0.0074 µM (active)		0.00865 µM (active)	0.00204 µM (active)

From ChEMBL document CHEMBL1201862, “PubChem BioAssay data set” (2004)
